# Source: patent US6746850B2 (priority 2000, dated 2004)
# Values joined by “and” are separate entries in the source; they are usually repeats but may differ in a detail not shown here. Equal values may be shown once.
# How the values were obtained:
# [1] = biological target: T1, BChE (Cavia porcellus, UniProt H0V4F8); assay type: biochemical, Hartley guinea pig
# [2] = biological target: T1, BChE; assay type: biochemical, Hartley guinea pig; remark: listed apart in the source
# [3] = biological target: T2, AChE (Cavia porcellus, UniProt D3YE96); assay type: biochemical, Hartley guinea pig
# [4] = test system: BChE; assay type: biochemical, Rhesus monkey
# [5] = biological target: BChE (Rattus norvegicus, UniProt Q9JKC1); assay type: biochemical, Sprague Dawley rat
# [6] = biological target: BChE (Homo sapiens, UniProt P06276); assay type: biochemical
# [7] = biological target: T2, AChE; assay type: biochemical, Hartley guinea pig; remark: listed apart in the source
# [8] = biological target: AChE (Macaca mulatta, UniProt A0A5F7ZPE9); assay type: biochemical, Rhesus monkey
# [9] = biological target: AChE (Rattus norvegicus, UniProt P37136); assay type: biochemical, Sprague Dawley rat
# [10] = biological target: AChE (Homo sapiens, UniProt P22303); assay type: biochemical
# [11] = biological target: T2, AChE; settings: guinea pig, in vivo
Compound,BChE Coefficient (sensitivity coefficient) Value [4],BChE Coefficient (sensitivity coefficient) Value [5],BChE Coefficient (sensitivity coefficient) Value [6],AChE Coefficient (sensitivity coefficient) Value [8],AChE Coefficient (sensitivity coefficient) Value [9],AChE Coefficient (sensitivity coefficient) Value [10],also measured
"C/C=C1\[C@H]2C=C(C)C[C@]1(N)c1ccc(=O)[nH]c1C2 (racemic) [rac Hup-A, Racemic huperzine-A]",–,–,–,–,–,–,BChE Average [1]: 0.907 U/mL and 0.930 U/mL and 0.913 U/mL and 0.929 U/mL and 0.912 U/mL and 0.892 U/mL
C[n+]1ccccc1C=NO [2-PAM],–,–,–,–,–,–,effect on BChE [2]: relatively unaffected; effect on AChE [3]: inhibited
"CCCC(=O)SCC[N+](C)(C)C.[I-] [BTC, butyrylthiocholine iodide]",661 mAbs/min/[blood],62 mAbs/min/[blood],1466 mAbs/min/[blood],0 mAbs/min/[blood],0 mAbs/min/[blood],82 mAbs/min/[blood],AChE Coefficient (sensitivity coefficient) Value [7]: 0 mAbs/min/[blood]
"CN(C)C(=O)Oc1ccc[n+](C)c1 [PB, pyridostigmine bromide]",–,–,–,–,–,–,peak inhibition time [11]: about 30 minutes
"CCC(=O)SCC[N+](C)(C)C.[I-] [PTC, propionylthiocholine iodide]",514 mAbs/min/[blood],134 mAbs/min/[blood],1417 mAbs/min/[blood],844 mAbs/min/[blood],158 mAbs/min/[blood],1071 mAbs/min/[blood],–
